Literature values in patent US20030170332A1, “Flavonoid extract” (Enzo Nutraceuticals Limited., priority 2001, published 2003).

What was measured:
DNA damage = settings: for Protection against DNA damage: in vivo (Duthie et al. 1997; Sierens et al. 2001)
[1] = tested on: carbonyl levels of immunoglobulin

Row | Compound | Protection against DNA damage (DNA damage) | DNA protection on increasing intake in the diet (DNA damage; in vivo (Beatty et al. 2000)) | Effect on protein oxidation of immunoglobulin ([1]; 5 weeks supplementation, 400 mg/day) | Carbonyl levels of immunoglobulin ([1]; 10 and 15 weeks supplementation, subjects with low baseline ascorbate, not in those with normal base line ascorbate)
1 | Oc1ccc([C@H]2COc3cc(O)ccc3C2)cc1 [equol] | did protect against DNA damage | – | – | –
2 | O=c1c(-c2ccc(O)cc2)coc2cc(O)cc(O)c12 [genistein] | did protect against DNA damage | – | – | –
3 | O=c1c(O)c(-c2cc(O)c(O)c(O)c2)oc2cc(O)cc(O)c12 [myricetin] | did protect against DNA damage | – | – | –
4 | O=c1c(O)c(-c2ccc(O)c(O)c2)oc2cc(O)cc(O)c12 [quercetin] | did protect against DNA damage | did not result in increased DNA protection | – | –
5 | O=C1O[C@H]([C@@H](O)CO)C(O)=C1O [vitamin C] | – | – | no significant effect | significantly reduced
